The test system of one data set is KPC pancreatic cancer. Description: KPC pancreatic cancer model (tumor volumes, tumor tissue immune cells). The format is in vivo. The note with it: tumor tissues.
Data set [1] concerns EGFR phosphorylation (p-EGFR Y1069) in A431 cells. Description: EGF-induced EGFR phosphorylation in A431 cells (phosphoflow). It is filed as cell-based, human. As to the method: Phosphoflow cytometry was performed with p-EGFR (Y1069). MFI values were normalized so that 100% represents the p-EGFR level in stimulated cells without inhibitor, while 0% represents the unstimulated/no drug condition.

Data set [2] deals with 80 known pharmacologic targets (G-protein-coupled receptors, nuclear receptors, proteases, ion channels). The data set is described as follows: Binding assays on 80 known pharmacologic targets at 10 μM. The conditions noted are these: screened at 10 μM. The source says: (§1) Formula (2) was well tolerated in standard in vivo Good Laboratory Practices (GLP) studies of pharmacologic safety.

The nature of data set [3]: Cardiovascular function study in awake telemeterized dogs. The conditions noted are these: male beagle dogs, single doses through 30 mg/kg. The format is in vivo.
Text: as §1

Data set [4] deals with NK cell lysis of Raji cells. Description: Rituximab ADCC 51Cr release assay, Raji targets. It is filed as cell-based, human. The note with it: 1 μM; NK cells, E:T 25:1. The source says:
Cell culture conditions were as follows. […] The HER18 cells were maintained in DEM supplemented with fetal bovine serum, penicillin-streptomycin and. Prior to assay, HER18 cells were harvested using trypsin-EDTA, washed with phosphate-buffered saline (PBS) containing 5% serum and viable cells were counted. For culture of primary target cells, peripheral blood from CLL patients was subject to density centrifugation to obtain peripheral blood mononuclear cells (PBMC). Cell preparations were washed and then subject to positive selection of CD5^+CD19^+ CLL cells using magnetic beads (MACS, Miltenyi Biotech). Cell preparations were used fresh after selection. NK cells from CLL patients and healthy volunteers were enriched from peripheral blood collected in sodium citrate anticoagulant tubes and then subject to density centrifugation. Removal of non NK cells was performed using negative selection by MACS separation. Freshly isolated NK cells were washed three times, enumerated, and then used immediately for ADCC assays.
ADCC assays were performed as follows. Briefly, target cells (Raji or primary CLL) were labeled by incubation at 37° C. with 100 μCi ^51Cr for 4 hours prior to co-culture with NK cells. Cells were washed, enumerated, and then added in triplicate to prepared 96-well plates containing treated NK cells at an effector:target (E:T) ratio of 25:1. […] Cultures were incubated at 37° C. for 4 hours, and then centrifuged. Supernatants were harvested and ^51Cr release was measured by liquid scintillation counting. All experiments were performed in triplicate.

A further data set has as its system CD8+ T cells. The data set is described as follows: CD8+ T cell viability on anti-TCR/anti-CD28 coated wells. The format is cell-based. The note with it: 4 days, neutral culture conditions. The procedure: Total T cells were plated on anti-TCR and anti-CD28 coated wells in the presence of both BTK inhibitors. Neutral culture conditions were used that will not polarize T cells to a helper lineage. […] Statistical significance was calculated using the Mann Whitney T-test.

The next data set has as its system ID8 ovarian cancer. Description: ID8 syngeneic orthotopic ovarian cancer murine model. It is filed as in vivo, mice. The note with it: 15 mg/kg/BID orally. The source says: […] ovarian cancer models, including the ID8 syngeneic orthotopic ovarian cancer model and other animal models, are described in Fong and Kakar, J. Ovarian Res. 2009, 2, 12; Greenaway, et al., Gynecol. Oncol. 2008, 108, 385-94; Urzua, et al., Tumour Biol. 2005, 26, 236-44; Janat-Amsbury, et al., Anticancer Res. 2006, 26, 3223-28; Janat-Amsbury, et al., Anticancer Res. 2006, 26, 2785-89. […] The results of the study are shown in FIG. 8, FIG. 9, FIG. 10, FIG. 11, FIG. 12, FIG. 13, FIG. 14, and FIG. 15.

In a further data set the test system is CYP enzymes. The data set is described as follows: Nonclinical CYP interaction studies. It is filed as in vitro ADME.
A short description of data set [5]: Preliminary evaluation of metabolism in plasma, bile and urine. It is filed as in vivo. The conditions noted are these: rats, dogs, monkeys.
Data set [6] deals with NK cells and MDSC subsets in peripheral blood. Description: Flow cytometry of peripheral blood cell subsets in CLL patients. It is filed as in vivo, human. The conditions noted are these: patients with falling ALC counts; 28 days of dosing. The procedure:
PBMCs were stained with monoclonal antibodies conjugated to fluorescent tags (flourochromes) to identify cell subsets via flow cytometry. Non-viable cells were excluded from the analysis using the dye 7-aminoactinomycin D (7-AAD). To produce the metric of percent change, the following steps were taken. First, each cell subset was defined by hierarchical flow cytometry gating. Then, the change in frequency (between day 1 and day 28) was calculated for each cell subset. MDSC subsets were measured as a % of all myeloid cells. T cell subsets were measured as a % of all CD3^+ cells, and NK cells were measured as a % of all live CD45^+ cells. […] A cycle is 28 days. A trend is observed wherein patients with decreasing ALC % had increasing MDSC (monocytic) %. This may include patients who had quickly resolving lymphocytosis and those with no initial lymphocytosis. […] This may include patients who had quickly resolving lymphocytosis and those having no initial lymphocytosis. The effects in FIG. 47 to FIG. 50 are observed in multiple cohorts, at doses including 100 mg BID, 200 mg QD, and 400 mg QD. In FIG. 51 and FIG. 52, the effects on NK cells and MDSC cells are compared to a number of other markers versus % change in ALC at C1D28 and C2D28. […] The effects on NK cells and MDSC cells are observed to be much more pronounced than on any of these other markers.

In the next data set the test system is CXCL12 and CCL2. Description: Plasma chemokines in treated CLL patients. It is filed as in vivo, human. The conditions noted are these: CLL patients on treatment.
Data set [7] deals with pancreatic cancer (KPC mice). The data set is described as follows: KPC pancreatic cancer mouse model. The format is in vivo. The source says:
The KPC mouse model recapitulates many of the molecular, histopathologic, and clinical features of human disease (Westphalen and Olive, Cancer J. 2012, 18, 502-510). Mice were enrolled after identification of spontaneously appearing tumors in the pancreas that were ≥100 mm^3 (as assessed by high-resolution ultrasonography).

In general, inhibition refers to the percentage by which the read-out fell short of the control. High values mean strong suppression, low ones little suppression. Take `CC#CC(=O)N1CCC[C@H]1c1nc(-c2ccc(C(=O)Nc3ccccn3)cc2)c2c(N)nccn12` [Formula (2), (S)-4-(8-amino-3-(1-(but-2-ynoyl)pyrrolidin-2-yl)imidazo[1,5-a]pyrazin-1-yl)-N-(pyridin-2-yl)benzamide]: in the data set on KPC pancreatic cancer, the “immunosuppressive MDSCs (Gr1+Ly6CHi)” value was “significantly reduced”, the “immunosuppressive TAMs (CD11b+Ly6ClowF4/80+Csf1r+)” value is “significantly reduced” and the “immunosuppressive Tregs (CD4+CD25+FoxP3+)” value was “significantly reduced”. Further, in [1] (10 μM, A431 human epidermoid cancer cell line), the “inhibition of in vitro EGFR phosphorylation” value is recorded as “no inhibition”. Further, the inhibition at 10 µM in data set [1] (Homo sapiens, A-431, A431 cells, 2 h, EGF 100 ng/mL 5 min) was found to be 7%. In data set [2], the “activity in binding assays on 80 known pharmacologic targets” value was “significant activity only against the A3 adenosine receptor”. Moreover, the “body temperature, cardiovascular, ECG (including QT interval) parameters” value in data set [3] is “no meaningful changes”. Moreover, the “effect on rituximab-mediated ADCC, Raji cells” value in data set [4] is reported as “not inhibited”. Besides, the “CD8+ T cell viability” value in the data set with CD8+ T cells was “not observed”. Further, in the data set on ID8 ovarian cancer, the “CD8+ T cells” value is “increase”. In the data set with ID8 ovarian cancer (tumor-bearing mice), the “immunosuppressive B cells, including Bregs” value is reported as “significant reduction” and the immunosuppressive tumor-associated lymphocytes entry was “significant reduction”. In the data set on CYP enzymes, the “potential for clinical drug-drug interactions via CYP enzymes” value is recorded as “very unlikely to cause clinical drug-drug interactions”. Further, the “metabolic processes in plasma, bile, and urine” value in [5] is “oxidation, glutathione binding, and hydrolysis”. Also, in data set [6], the “NK cells and monocytic MDSC subsets in peripheral blood” value was “increase in frequency”. Moreover, in the data set with CXCL12 and CCL2, the “plasma CCL2 levels” value was “significant decrease” and the “plasma CXCL12 levels” value was “significant decrease”. Further, in data set [7] (15 mg/kg BID), the “CD8+ cells in tumor tissues” value is listed as “significant increase”, the “MDSCs in tumor tissues” value was “significantly reduced”, the “Tregs in tumor tissues” value is “significantly reduced” and the “immunosuppressive TAMs in tumor tissues” value was “significantly reduced”. Further, the “survival at day 28” value in data set [7] (15 mg/kg BID orally) is recorded as 5/6. Moreover, the “average tumor volume, day 28” value in [7] (15 mg/kg BID orally, day 28) came out at 272 mm^3. Also, the “average tumor volume, predose” value in [7] (15 mg/kg BID orally, predose) turned out to be 165 mm^3.

These data come from patent US20190022092A1, “Therapeutic Combinations of a BTK Inhibitor and a GITR Binding Molecule, a 4-1BB Agonist, or an OX40 Agonist” (Acerta Pharma B.V., priority 2015, published 2019).
